pIC50: −log10 of the molar value.
Assays:
HCT-116 = experiment: NCI DTP screen (SRB), Colon Cancer; assay type: cell-based; conditions: Homo sapiens
Procedure: (§1) Screening of compounds 70 and 71 against several cancer cell lines The human tumor cell lines of the cancer screening panel are grown in RPMI 1640 medium containing 5% fetal bovine serum and 2 mM L-glutamine. For a typical screening experiment, cells are inoculated into 96 well microtiter plates in 100 μL at plating densities ranging from 5,000 to 40,000 cells/well depending on the doubling time of individual cell lines. After cell inoculation, the microtiter plates are incubated at 37° C., 5% CO2, 95% air and 100% relative humidity for 24 h prior to addition of experimental drugs.
(§2) After 24 h, two plates of each cell line are fixed in situ with TCA, to represent a measurement of the cell population for each cell line at the time of drug addition (Tz). Experimental drugs are solubilized in dimethyl sulfoxide at 400-fold the desired final maximum test concentration and stored frozen prior to use. At the time of drug addition, an aliquot of frozen concentrate is thawed and diluted to twice the desired final maximum test concentration with complete medium containing 50 μg/ml gentamicin. Additional four, 10-fold or ½ log serial dilutions are made to provide a total of five drug concentrations plus control. Aliquots of 100 μl of these different drug dilutions are added to the appropriate microtiter wells already containing 100 μl of medium, resulting in the required final drug concentrations.
(§3) Following drug addition, the plates are incubated for an additional 48 h at 37° C., 5% CO2, 95% air, and 100% relative humidity. For adherent cells, the assay is terminated by the addition of cold TCA. Cells are fixed in situ by the gentle addition of 50 μl of cold 50% (w/v) TCA (final concentration, 10% TCA) and incubated for 60 minutes at 4° C. The supernatant is discarded, and the plates are washed five times with tap water and air dried. Sulforhodamine B (SRB) solution (100 μl) at 0.4% (w/v) in 1% acetic acid is added to each well, and plates are incubated for 10 minutes at room temperature. After staining, unbound dye is removed by washing five times with 1% acetic acid and the plates are air dried. Bound stain is subsequently solubilized with 10 mM trizma base, and the absorbance is read on an automated plate reader at a wavelength of 515 nm. For suspension cells, the methodology is the same except that the assay is terminated by fixing settled cells at the bottom of the wells by gently adding 50 μl of 80% TCA (final concentration, 16% TCA). Using the seven absorbance measurements [time zero, (Tz), control growth, (C), and test growth in the presence of drug at the five concentration levels (Ti)], the percentage growth is calculated at each of the drug concentrations levels. Percentage growth inhibition is calculated as: [(Ti−Tz)/(C−Tz)]×100 for concentrations for which Ti>/=Tz [(Ti−Tz)/Tz]×100 for concentrations for which Ti<Tz
(§4) Three dose response parameters are calculated for each experimental agent. […] The drug concentration resulting in total growth inhibition (TGI) is calculated from Ti=Tz. […] Values are calculated for each of these three parameters if the level of activity is reached; however, if the effect is not reached or is exceeded, the value for that parameter is expressed as greater or less than the maximum or minimum concentration tested.

KM12 = experiment: NCI DTP screen (SRB), Colon Cancer; assay type: cell-based; conditions: Homo sapiens
Procedure: as §1, §2, §3, §4

SW-620 = experiment: NCI DTP screen (SRB), Colon Cancer; assay type: cell-based; conditions: Homo sapiens
Procedure: as §1, §2, §3, §4

[1] = system: sixty human tumor cell lines; experiment: NCI DTP sixty cell line assay, means over the panel; assay type: cell-based
Procedure: as §1, §2, §3, §4

HOP-62 = experiment: NCI DTP screen (SRB), Non-Small Cell Lung Cancer; assay type: cell-based; conditions: Homo sapiens
Procedure: as §1, §2, §3, §4

EKVX = experiment: NCI DTP screen (SRB), Non-Small Cell Lung Cancer; assay type: cell-based; conditions: Homo sapiens
Procedure: as §1, §2, §3, §4

NCI-H226 = experiment: NCI DTP screen (SRB), Non-Small Cell Lung Cancer; assay type: cell-based; conditions: Homo sapiens
Procedure: as §1, §2, §3, §4

A549/ATCC = experiment: NCI DTP screen (SRB), Non-Small Cell Lung Cancer; assay type: cell-based; conditions: Homo sapiens
Procedure: as §1, §2, §3, §4

NCI-H23 = experiment: NCI DTP screen (SRB), Non-Small Cell Lung Cancer; assay type: cell-based; conditions: Homo sapiens
Procedure: as §1, §2, §3, §4

NCI-H322M = experiment: NCI DTP screen (SRB), Non-Small Cell Lung Cancer; assay type: cell-based; conditions: NCI-H322M
Procedure: as §1, §2, §3, §4

MCP7 = experiment: NCI DTP screen (SRB), Breast Cancer; assay type: cell-based, human; conditions: MCP7
Procedure: as §1, §2, §3, §4

CCRF-CEM = experiment: NCI DTP screen (SRB), Leukemia; assay type: cell-based; conditions: Homo sapiens
Procedure: After 24 h, two plates of each cell line are fixed in situ with TCA, to represent a measurement of the cell population for each cell line at the time of drug addition (Tz). Experimental drugs are solubilized in dimethyl sulfoxide at 400-fold the desired final maximum test concentration and stored frozen prior to use. […]
Following drug addition, the plates are incubated for an additional 48 h at 37° C., 5% CO2, 95% air, and 100% relative humidity. […] Bound stain is subsequently solubilized with 10 mM trizma base, and the absorbance is read on an automated plate reader at a wavelength of 515 nm. […] Using the seven absorbance measurements [time zero, (Tz), control growth, (C), and test growth in the presence of drug at the five concentration levels (Ti)], the percentage growth is calculated at each of the drug concentrations levels. Percentage growth inhibition is calculated as: [(Ti−Tz)/(C−Tz)]×100 for concentrations for which Ti>/=Tz [(Ti−Tz)/Tz]×100 for concentrations for which Ti<Tz […]

[2] = Preliminary animal studies, daily oral administration; conditions: data not shown
PC-3 cells = experiment: Cell viability analysis (MTT) in PC-3 cells; assay type: cell-based, human; conditions: Homo sapiens; inducing apoptotic death in PC-3 cells / PC-3 cell viability; read-out: IC50 PC-3
Procedure: Cell Culture PC-3 (p53−/−) human androgen-nonresponsive prostate cancer cells were purchased from the American […] (Manassas, Va.). Cells were cultured in RPMI 1640 medium (Gibco, Grand Island, N.Y.) supplemented with 10% fetal bovine serum (FBS; Gibco) at 37° C. in a humidified incubator containing 5% CO2.
Cell viability analysis The effect of 4-[5-(4-methylphenyl)-3-(trifluoromethyl)-1H-pyrazol-1-yl]benzenesulfonamide and its derivatives on PC-3 cell viability was assessed by using the MTT {[3-(4,5-dimethylthiazol-2-yl)-2,5-diphenyl-2H-tetrazolium bromide]} assay in six replicates. Cells were grown in 10% FBS-supplemented RPMI 1640 medium in 96-well, flat bottomed plates for 24 h, and were exposed to various concentrations of compounds 1-36 dissolved in DMSO (final concentration ≦0.1%) in 1% serum-containing RPMI 1640 medium for different time intervals. Controls received DMSO vehicle at a concentration equal to that in drug-treated cells. The medium was removed, replaced by 200 μl of 0.5 mg/ml of MTT in 10% FBS-containing RPMI-1640 medium, and cells were incubated in the CO2 incubator at 37° C. for 2 h. Supernatants were removed from the wells, and the reduced MTT dye was solubilized in 200 μL/well DMSO. Absorbance at 570 nm was determined on a plate reader.

Question: What does the source list for `NCC(=O)Nc1ccc(-n2nc(C(F)(F)F)cc2-c2ccc3c(ccc4ccccc43)c2)cc1` [Compound 70, 2-Amino-N-{4-[5-(2-phenanthrenyl)-3-(trifluoromethyl)-1H-pyrazol-1-yl]-phenyl}-acetamide]?
Answer: GI50 (HCT-116; HCT-116): 1270 nM; CC50 (HCT-116; HCT-116, read-out: LC50): > 100000 nM; GI50 (KM12; KM12): 1070 nM; CC50 (KM12; KM12, read-out: LC50): 6620 nM; GI50 (SW-620; SW-620): 1120 nM; CC50 (SW-620; SW-620, read-out: LC50): > 100000 nM; range in which cell growth is completely suppressed in a diverse range of tumor cell lines [1]: 3 to 5 µM; CC50 ([1]; Homo sapiens, 48 h, read-out: mean LC50 among the sixty cell lines): 24000 nM; GI50 ([1]; Homo sapiens, 48 h, two-day treatment, serum-containing medium, read-out: mean GI50 among the sixty cell lines): 1100 nM; concentration at which many cell lines respond to the growth inhibitory effect ([1]; two-day exposure, 5% FBS-containing medium): ≥ 0.1 µM; GI50 (HOP-62; HOP-62): 1270 nM; CC50 (HOP-62; HOP-62, read-out: LC50): 7130 nM; GI50 (EKVX): 1490 nM; GI50 (NCI-H226): 1200 nM; GI50 (A549/ATCC): 1020 nM; GI50 (NCI-H23; NCI-H23): 1300 nM; CC50 (NCI-H23; NCI-H23, read-out: LC50): 6330 nM; CC50 (NCI-H322M; Homo sapiens, read-out: LC50): 5400 nM; Mean Optical Densities (NCI-H322M; Log10 Concentration −5.0): 1.100; Percent Growth (NCI-H322M; Log10 Concentration −8.0): 60%; GI50 (MCP7; Homo sapiens): 718 nM; Percent Growth (MCP7; Log10 Concentration −5.0): −57%; Percent Growth (MCP7; Log10 Concentration −6.0): 43%; GI50 (CCRF-CEM): 387 nM; CC50 (CCRF-CEM; read-out: LC50): > 100000 nM; toxicity to the animals ([2]; daily oral administration for one month): little toxicity; oral absorption ([2]; preliminary animal studies): can be orally absorbed; pIC50 (PC-3 cells): 5.30

From patent US20060079566A1, “PDK-1/Akt signaling inhibitors” (priority 2003, published 2006)
